# How the values were obtained:
# fish = test: Fish toxicity, Table I; assay type: in vivo
# Description: (§1) In addition, DCP was tested for mouse toxicity, fish toxicity and biodegradibility.
# mice [1] = test: Mouse toxicity, oral, Table I; assay type: in vivo; settings: for mouse toxicity (head is a drawing): oral administration
# Description: as §1
# [2] = Biodegradability studies, general statement
# From the text: (§2) Metabolic studies involving insects, mice, and fish and a model ecosystem (such as described in U.S. Pat. No. 3,787,505) and insecticidal activity studies generally involving flies and mosquitoes have shown that both the symmetrical and the asymmetrical compounds of the present invention are effective. Thus, the new compounds can be represented by the general formula: [drawing 3] where R1 is H or Cl and R2 is CH3 or Cl, X and X^1 are the same or different and each is selected from the group consisting of C1 to C3 alkyl groups and C1 to C4 alkoxy groups.
# as §1
# [3] = test system: houseflies, susceptible strain (SNAIDM); test: Insecticidal activity, housefly, susceptible strain (SNAIDM), Table I; assay type: in vivo; settings: for SNAIDM alone (insecticidal activity; head is a drawing): compound alone; for SNAIDM with P.B. (insecticidal activity; head is a drawing): with piperonyl butoxide synergist
# From the text: as §2, §1
# [4] = test system: houseflies, DDT resistant strain (RSP); test: Insecticidal activity, housefly, resistant strain (RSP), Table I; assay type: in vivo; settings: for RSP alone (insecticidal activity; head is a drawing): compound alone; for RSP with P.B. (insecticidal activity; head is a drawing): with piperonyl butoxide synergist
# From the text: as §2, §1
# [5] = test system: Anopheles albimanus larvae; test: Insect toxicity, Anopheles albimanus larvae; assay type: in vivo
# Anopheles albimanus = test: Persistence on plywood surfaces of test huts, Anopheles albimanus; assay type: in vivo; settings: adult mosquitoes
# Description: (§3) The persistence of some of the compounds of the present invention was evaluated and compared with that of ethoxychlor. In these tests, the compounds were applied to the plywood surfaces of test huts and the mortalities of adult mosquitoes contained in the huts were measured to determine the number of weeks that 50% mortality continued to occur.
# Culex fatigans adults = test: Insect toxicity, Culex fatigans adults; assay type: in vivo
# [6] = test system: insects (flies and mosquitoes); test: Insecticidal activity, general statement; assay type: in vivo; settings: versus ethoxychlor
# From the text: as §2
# Phormia regina = test: Insect toxicity, Phormia regina; assay type: in vivo
# [7] = test system: Musca domestica Rsp strain; test: Insect toxicity, Musca domestica Rsp strain, DDT-resistant; assay type: in vivo; settings: for LD50: Musca domestica, without PB; for Musca domestica Rsp strain w/PB LD50: with PB
# Mouse toxicity, LD50 = assay type: in vivo, mice; settings: in vivo
# mice [8] = test: Mouse toxicity, LD50; assay type: in vivo; settings: versus ethoxychlor
# Culex fatigans = test: Persistence on plywood surfaces of test huts, Culex fatigans; assay type: in vivo; settings: adult mosquitoes
# Description: as §3
# [9] = test system: green sunfish (Lepomis cyanellus); test: Green sunfish toxicity over a period of time; assay type: in vivo; settings: initial concentration 0.1 ppm
# From the text: The compounds of Example III, V, XI, XIV and XXI were further tested and compared with ethoxychlor to determine fish toxicities over a period of time. In these tests, green sunfish (Lepomis cyanellus) were subject to an initial concentration dosage of 0.1 ppm and the number of days that 100 percent mortalities occurred was observed.
# [10] = test system: Anopheles albimanus adults; test: Insect toxicity, Anopheles albimanus adults; assay type: in vivo
# [11] = test system: Musca domestica (NAIDM strain); test: Insect toxicity, Musca domestica NAIDM strain; assay type: in vivo; settings: for LD50: Musca domestica, without PB; for Musca domestica NAIDM (w/PB) LD50: with PB
# Culex fatigans larvae = test: Insect toxicity, Culex fatigans larvae; assay type: in vivo; settings: Culex quinquefasciatus
SMILES,fish toxicity (head is a drawing) (fish),SNAIDM alone (insecticidal activity; head is a drawing) [3],SNAIDM with P.B. (insecticidal activity; head is a drawing) [3],RSP alone (insecticidal activity; head is a drawing) ([4]; resistant strain),RSP with P.B. (insecticidal activity; head is a drawing) ([4]; resistant strain),LC50 [5],"Anopheles albimanus, P50 (number of weeks that at least 50% mortality occurred) (Anopheles albimanus)",Culex fatigans adults-LC50 (Culex fatigans adults),insecticidal activity relative to ethoxychlor [6],LD50 (Phormia regina),LD50 [7],Musca domestica Rsp strain w/PB LD50 [7],"LD50 (Mouse toxicity, LD50)",safety to mice relative to ethoxychlor (mice [8]),"Culex fatigans, P50 (number of weeks that at least 50% mortality occurred) (Culex fatigans)",Number of days 100% mortality [9],Anopheles albimanus adults LC50 [10],LD50 [11],Musca domestica NAIDM (w/PB) LD50 [11],LC50 (Culex fatigans larvae),other results
"COc1ccc(C(c2ccc(OC)cc2)C(C)Cl)cc1 (stereo not drawn) [DCP, 1,1-bis(p-methoxyphenyl)-2-chloropropane]",> 3,935,3.5,> 500,4.1,,,,,,,,,,,,,,,,"fish toxicity (in words) (fish): less toxic than either DDT or methoxychlor; mouse toxicity (head is a drawing) (mice [1]): > 1000; mouse toxicity (in words) (mice [1]; oral administrations to mice): considerably less toxic than DDT and comparable to methoxychlor; biodegradability (in words) [2]: more biodegradable than methoxychlor; toxicity to susceptible strain of houseflies, alone (in words) ([3]; alone): not as toxic as DDT or methoxychlor; toxicity to susceptible strain of houseflies with piperonyl butoxide (in words) ([3]; with P.B.): at least as toxic as methoxychlor and considerably more toxic than DDT; toxicity to DDT resistant strain of houseflies, alone (in words) ([4]; DDT resistant strain, alone): not as toxic as DDT or methoxychlor; toxicity to resistant strain of houseflies with piperonyl butoxide (in words) ([4]; resistant strain, with P.B.): at least as toxic as methoxychlor and considerably more toxic than DDT"
"Clc1ccc(C(c2ccc(Cl)cc2)C(Cl)(Cl)Cl)cc1 [DDT, 1,1,1-trichloro-2,2-bis(p-chlorophenyl) ethane, reference compound]",0.30,14.0,5.5,270,70,,,,,,,,,,,,,,,,mouse toxicity (head is a drawing) (mice [1]): 200
CCOc1ccc(C(c2ccc(OCC)cc2)C(C)C)cc1 [Example XI],,,,,,0.028 µg/mL,> 44 weeks,14.3 ug/cm^2,at least generally comparable to ethoxychlor,14.5 mg/kg,38 mg/kg,12.5 µg/g,≥ 1000 mg/kg,at least five times safer to mice than is ethoxychlor,40 weeks,> 35 days,4.5 ug/cm^2,21.5 mg/kg,3.5 µg/g,0.08 µg/mL,
"COc1ccc(C(c2ccc(OC)cc2)C(Cl)(Cl)Cl)cc1 [Methoxychlor, reference compound]",1,45.0,3.5,48,4.6,,,,,,,,,,,,,,,,
CCOc1ccc(C(c2ccc(OCC)cc2)C(C)Cl)cc1 (stereo not drawn) [V],,,,,,0.047 µg/mL,> 80 weeks,56 ug/cm^2,at least generally comparable to ethoxychlor,4.62 mg/kg,18 mg/kg,4.9 µg/g,≥ 1000 mg/kg,at least five times safer to mice than is ethoxychlor,> 70 weeks,4 days,7.9 ug/cm^2,9.5 mg/kg,2 µg/g,0.054 µg/mL,
CCOc1ccc(C(c2ccc(C)cc2)C(C)C)cc1 (stereo not drawn) [XIV],,,,,,0.275 µg/mL,6 weeks,5.0 ug/cm^2,at least generally comparable to ethoxychlor,35 mg/kg,150 mg/kg,31 µg/g,≥ 1000 mg/kg,at least five times safer to mice than is ethoxychlor,4 weeks,0 days,5 ug/cm^2,70 mg/kg,18 µg/g,0.052 µg/mL,

# Reference: patent US4118424A, “Biodegradable insecticides” (priority 1976, dated 1978)
